Source: publication PMC11489552, “Specific targeting of cancer vaccines to antigen-presenting cells via an endogenous TLR2/6 ligand derived from cysteinyl-tRNA synthetase 1” (Molecular Therapy, 2024)
Read-outs that look alike come from different tables or passages of the source.

How the values were obtained:
[1] = system: BMDCs; type: cell-based, C57BL/6 mice
[2] = system: BMDCs; test: In vitro antigen presentation ([…]/H-2K^b) in BMDCs; type: cell-based, C57BL/6 mice
Method: To examine TLR2-specific antigen uptake and presentation, BMDCs were isolated from TLR2^WT and TLR2^–/– mice as described above. BMDC cells (3 × 10^5) were seeded in the 24-well plate. […] C8138), 20 or 40 μM dynasore (Sigma, no. 324410), 1 or 2 μM cathepsin S inhibitor (MCE, no. LY 3000328), 1 or 2 μM methyl-β-cyclodextrin (Sigma-Aldrich, no. C4555), or 1 or 2 mM amiloride (Merck, no. A7410) 1 mg/mL for 30 min. After pretreatment, labeled or native samples were treated in the wells, followed by antigen uptake or presentation analyzed by flow cytometry as described above.

[3] = system: bone marrow-derived dendritic cells (BMDCs); test: BMDC stimulation: costimulatory molecules and cytokines; type: cell-based, C57BL/6 mice; conditions: 100 nM, 24 h, ELISA
Method: Bone marrow was harvested from femurs and tibias of C57BL/6 mice. Red blood cells were lysed with Pharm Lyse lysing solution (BD, no. 555899), and the remaining cells were washed using DPBS (HyClone, no. SH30378.02), followed by centrifugation to the collection. Bone marrow cells were resuspended at a concentration of 1 × 10^6 cells/mL in RPMI-1640 medium supplemented with 10% FBS, 1% streptomycin-penicillin, and 20 ng/mL GM-CSF (R&D Systems, no. 415-ML-005). On day 3, add an additional medium of the same supplemented as described above. BMDCs were harvested on day 6 and seeded at 3 × 10^5 cells/mL in 24-well plates for stimulation.
Differentiated THP-1, BMDC (3 × 10^5 cells per well) were seeded, and after 24 h starved with serum-free-medium for 1 h. […] To measure the inflammatory cytokine level, the culture medium was harvested, centrifuged at 500 × g for 10 min at 4°C, and the supernatant was separated. The expression of inflammatory cytokines was measured using hTNF-α (BD, no. 555212), IL-12p70 (BD, no. 555256), IL-12p40 (BD, no. 555165), and IL-6 (BD, no. 555240) ELISA kits according to the manufacturer’s instructions. To investigate the expression of costimulatory molecules on the cell surface, cells were harvested using dissociation buffer (5 mM EDTA in DPBS), washed, and stained with 1 μg/mL antibody, followed by flow cytometry analysis. […]

[4] = Pharmacokinetics: plasma level of FAM-labeled antigen after injection; type: in vivo; conditions: subcutaneous, 5 nmol 5-FAM-labeled, C57BL/6 mice, n = 3 per group, plasma diluted 1:20 in PBS, fluorescence Ex/Em 494/518 nm, followed for 24 h
Method: Seven-week-old mice were intravenously or subcutaneously injected with 5 nmol labeled SLP or protein. At the indicated time point, blood was collected using ophthalmic bleeding into heparin-coated micro hematocrit capillary tubes (Fisherbrand, no. 22-362574). After being transferred blood into a microtube, plasma was isolated from blood by centrifugation at 4°C for 10 min at 1,000 × g to eliminate the cells, and then centrifugation at 4°C for 15 min 2,000 × g for removed platelets. The plasma was diluted 1:20 into PBS and measured on Infinite 200 PRO (TECAN) against a standard curve of analytes diluted into PBS (Ex/Em: 494/518 nm). All plasma was normalized to the maximum fluorescence detected in the individual injection sample and plotted as percent injection dose (% ID) versus time. The half-life was calculated by fitting the intravenous plasma curve using C=C0×e^–kt . The subcutaneous curve was fit to C=[F×ka×C0/VD(ka–k)]×(e^–k×t–e^–ka×t ), where C is the plasma concentration of indicated times, C0 is the initial serum concentration, k is the elimination rate constant, F is the systemic absorbance, ka is the absorption rate constant, VD is the volume of distribution.[72] The curve graphs were represented using nonlinear regression on GraphPad Prism.

[5] = Biodistribution to lymph nodes by IVIS imaging; type: in vivo, C57BL/6 mice; conditions: subcutaneous, 5 nmol FAM-labeled, IVIS over time, n = 3 per group
Method: Seven-week-old C57BL/6 mice were subcutaneously injected with 5 nmol FAM-E-, FAM-E+U-, or FAM-labeled EUCV, respectively. After 0.5, 2, 6, or 24 h, organs were collected and washed with PBS to remove any remaining blood. For biodistribution analysis, images were obtained using an In Vivo Imaging System (IVIS) Lumina II imaging systems (PerkinElmer; excitation 494 nm, emission 518 nm) and analyzed by Living Image software.

[6] = system: spleen cells re-stimulated with epitope peptides; test: SLP screening, IFN-γ ELISpot; type: in vivo, C57BL/6 mice; conditions: 20 μg SLP with U (100 μg) s.c. twice, spleen cells 7 days after final immunization
Method: Seven-week-old C57BL/6 mice were immunized subcutaneously in the right back twice at 1-week intervals using SLPs (HPV16 E6_23–42, E6_43–62, E6_123–143, E75–25, E7_43–62, and E7_76–95; 20 μg per SLP) with U (100 μg). After 7 days at final immunization, cells were isolated from the spleen and seeded in the ELISpot well in triplicates (5 × 10^5 cells per well) with 10 μg/mL of re-stimulatory 8–9 mer epitope peptides (HPV16 E6_29–37, E6_49–57, E6_129–138, E7_11–19, E7_49–57, and E7_82–90), respectively. Antigen-specific immune responses were detected by AID EliSpot Reader (AID, no. ELR08).

[7] = system: TC-1 tumors; test: TC-1 tumor model, combination with anti-PD-1 blockade; type: in vivo, C57BL/6 mice
Method: TC-1 tumor cells expressing HPV16-E6 and E7 proteins and E.G7-OVA cells expressing chicken OVA were used to generate of mouse tumor model. For the therapeutic cancer vaccine model, 7-week-old C57BL/6 mice were subcutaneously injected on the right flank with TC-1 cells (1 × 10^5 cells per mouse) in 100 μL DPBS. On day 6 when tumors measured 100 mm^3 […], treatment with 5 nmol of E, E+U, and EUCV was initiated as indicated in the schedule. On day 20 mice were sacrificed, and tumor tissues were collected for TILs analysis. For the anti-PD-1 antibody combination model, 5 nmol of E and EUCV was injected subcutaneously, and 200 μg of anti-PD-1 antibody (BioXcell, clone 29F.1A12, no. BE0273) was injected intraperitoneally as indicated in the schedule. On day 20 mice were sacrificed, and tumor tissues were collected for qRT-PCR and immunohistochemistry analysis. Survival was recorded by observing the mice up to 60 days and mice were euthanized when tumor volume reached 1,500 mm^3. For the E.G7-OVA tumor model, 7-week-old C57BL/6 mice were subcutaneously injected on the right flank with E.G7-OVA cells (1 × 10^6 cells per mouse) in 100 μL DPBS. On day 3 when the tumor measured 100 mm^3 […], treatment with 5 nmol of O, O+U, and OUCV was initiated as indicated in the schedule. On day 17 mice were sacrificed, and tumor tissue was collected for TIL analysis. In all experiments, tumors were measured 3 times a week using a caliper and calculated using the formula V(volume:mm^3)=L(length)×W^2(width)×0.52 ,[5] and mice were euthanize when tumor volume reached 1,500 mm^3.

[8] = system: DC2.4 cells; test: In vitro cytotoxicity, CCK-8; conditions: different concentrations, CCK-8 18 h after treatment
Method: (§1) The in vitro cytotoxicity test was assessed using Cell Counting Kit (CCK)-8 assays (Dojindo, no. CK04). DC2.4, Raw 264.7, and TC-1 cells were seeded onto 96-well plates for 24 h before treating them with different concentrations of EUCV and doxorubicin. A 10% CCK-8 solution was added to each well 18 h after treatment, and the plates were incubated at 37°C in a 5% CO2 atmosphere for 30 min to 4 h. The absorbance at 450 nm was detected using an instrument. Relative cell viability was calculated as a percentage of untreated control cells. To assess in vivo toxicity, E7 (100.6 nmol) and EUCV at 25 mpk (25.2 nmol) and 100 mpk (100.6 nmol) were subcutaneously injected into the backs of C57BL/6 mice. […] Mouse body weight was measured immediately after administration and at 24 h intervals, and at 48 h the mice were euthanized to measure spleen size to evaluate splenomegaly. After vaccine administration, blood was drawn at 2, 8, and 24 h, and cytokines IL-6 (BD, no. 555240) and IL-12p40 (BD, no. 555165) in serum were quantified using ELISA.

[9] = system: Raw 264.7 cells; test: In vitro cytotoxicity, CCK-8; conditions: different concentrations, CCK-8 18 h after treatment
Method: as §1

[10] = system: TC-1 cells; test: In vitro cytotoxicity, CCK-8; type: cell-based, mouse; conditions: different concentrations, CCK-8 18 h after treatment
Method: as §1

[11] = target: T1, hTLR2/6 (Homo sapiens, UniProt O60603+Q9Y2C9); test: HEK-Blue SEAP assay (NF-κB); type: cell-based; conditions: HEK-Blue hTLR2/6 cells, 24 h
T1 construct: host or cells: HEK-Blue hTLR2/6 (HEK293-derived NF-kB/SEAP reporter cells)
Method: HEK-Blue hTLR2/6 (Invivogen, no. hkb-htlr26), hTLR2/1 (Invivogen, no. hkb-htlr21), and hTLR4 (Invivogen, no. hkb-htlr4) cells were cultured in DMEM (HyClone, no. SH30243.01) supplemented with 10% heat-inactivated FBS, 1% penicillin-streptomycin, and 100 μg/mL normocin (Invivogen, no. ant-nr-1), with added HEK-Blue Selection (Invivogen, no. hb-sel) added in medium after the cells were passaged twice. For the SEAP assay, HEK-Blue cells were harvested and resuspended to 2.8 × 10^5 cells/mL in a culture medium. […] The plates were then incubated for 24 h at 37°C, and 5% CO2 and the supernatant was collected. After removing the remaining cells by centrifugation, 20 μL of supernatant was transferred into a 96-well plate with 180 μL QUNATI-Blue solution (Invivogen, no. rep-pbs). All plates were incubated at 37°C, 5% CO2 for 3–4 h, and absorbance was measured at 620 nm with a microplate reader (TECAN, no. 30087502).

[12] = In vivo toxicity (body weight, spleen, serum cytokines); parameters: species or system C57BL/6 mice; conditions: s.c.; EUCV 25.2 and 100.6 nmol, Pam2CSK4 100.6 nmol, poly(I:C) 2.5 nmol; serum at 2, 8, 24 h, ELISA
[13] = BMDCs pretreated 30 min with inhibitor at various concentrations, then FAM-labeled sample 100 nM 24 h, flow cytometry
[14] = BMDCs pretreated 30 min with inhibitor, then 100 nM O, O+U or OUCV, flow cytometry

T1 sequence (O60603 21-784): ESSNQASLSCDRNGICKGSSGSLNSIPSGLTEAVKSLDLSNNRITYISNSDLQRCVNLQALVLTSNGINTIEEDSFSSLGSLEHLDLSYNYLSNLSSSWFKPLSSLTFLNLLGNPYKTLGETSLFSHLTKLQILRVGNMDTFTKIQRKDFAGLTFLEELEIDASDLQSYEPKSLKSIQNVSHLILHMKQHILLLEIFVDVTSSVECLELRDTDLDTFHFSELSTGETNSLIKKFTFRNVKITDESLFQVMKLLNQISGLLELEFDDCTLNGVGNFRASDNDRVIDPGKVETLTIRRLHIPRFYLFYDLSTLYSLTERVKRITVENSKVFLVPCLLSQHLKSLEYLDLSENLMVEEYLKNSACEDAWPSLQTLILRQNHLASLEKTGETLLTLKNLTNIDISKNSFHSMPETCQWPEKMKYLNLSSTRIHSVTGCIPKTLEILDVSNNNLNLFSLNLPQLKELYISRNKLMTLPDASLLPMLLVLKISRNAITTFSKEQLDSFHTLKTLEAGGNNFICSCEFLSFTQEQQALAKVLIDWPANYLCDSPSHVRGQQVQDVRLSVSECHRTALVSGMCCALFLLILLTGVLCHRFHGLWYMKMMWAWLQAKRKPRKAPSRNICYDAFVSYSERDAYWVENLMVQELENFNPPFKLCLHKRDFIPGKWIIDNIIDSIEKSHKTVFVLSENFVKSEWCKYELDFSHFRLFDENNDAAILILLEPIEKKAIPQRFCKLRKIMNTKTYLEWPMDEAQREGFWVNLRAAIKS
T1 sequence (Q9Y2C9 32-796): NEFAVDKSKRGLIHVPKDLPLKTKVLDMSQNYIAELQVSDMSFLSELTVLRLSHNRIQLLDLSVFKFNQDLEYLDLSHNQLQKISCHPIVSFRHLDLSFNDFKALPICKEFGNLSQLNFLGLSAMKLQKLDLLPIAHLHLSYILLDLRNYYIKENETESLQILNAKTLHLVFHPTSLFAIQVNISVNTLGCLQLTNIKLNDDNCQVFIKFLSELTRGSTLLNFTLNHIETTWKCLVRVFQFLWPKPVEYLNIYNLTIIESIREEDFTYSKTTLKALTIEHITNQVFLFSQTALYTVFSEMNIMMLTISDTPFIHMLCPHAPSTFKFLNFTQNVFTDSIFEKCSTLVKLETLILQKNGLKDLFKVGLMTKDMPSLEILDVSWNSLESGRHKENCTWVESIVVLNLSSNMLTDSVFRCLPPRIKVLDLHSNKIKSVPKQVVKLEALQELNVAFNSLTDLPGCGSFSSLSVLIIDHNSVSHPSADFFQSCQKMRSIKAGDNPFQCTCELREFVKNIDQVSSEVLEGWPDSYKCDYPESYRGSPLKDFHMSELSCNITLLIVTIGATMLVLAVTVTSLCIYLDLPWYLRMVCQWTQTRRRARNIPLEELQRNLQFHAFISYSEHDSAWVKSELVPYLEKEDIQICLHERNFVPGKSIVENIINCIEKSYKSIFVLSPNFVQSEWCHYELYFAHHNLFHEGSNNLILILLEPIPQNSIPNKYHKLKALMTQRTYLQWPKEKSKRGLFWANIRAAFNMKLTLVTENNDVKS

## O=C(N/N=C/c1ccc(O)c(O)c1)c1cc2ccccc2cc1O [dynasore]
[1]; [13]
  effect of endocytosis/processing inhibitor on E+U and EUCV uptake: reduced E+U and EUCV uptake
[2]; [14]
  effect of inhibitor on antigen presentation (SIINFEKL/H-2K^b): reduced

## CN(C)CCCN1c2ccccc2Sc2ccc(Cl)cc21 [CM, chlorpromazine]
[1]; [13]
  effect of endocytosis/processing inhibitor on E+U and EUCV uptake: reduced E+U and EUCV uptake
[2]; [14]
  effect of inhibitor on antigen presentation (SIINFEKL/H-2K^b): reduced

## N=C(N)NC(=O)c1nc(Cl)c(N)nc1N [amiloride]
[1]; [13]
  effect of endocytosis/processing inhibitor on E+U and EUCV uptake: no change

## GQAEPDRAHYNIVTFCCKCD [HPV-16 E7_43–62 synthetic long peptide antigen]
[3]
  secretion of IL-12p70 and IL-6: absent
[4]
  time at which the blood concentration peaked: 0.25 h
[5]
  distribution among inguinal, axillary and iliac lymph nodes: diffused distribution to axillary and iliac LNs beyond inguinal LNs near the injection site
[6]
  IFN-γ activity among E6- and E7-derived SLPs: highest interferon gamma (IFN-γ) activity
[7]; TC-1 tumor-bearing mice, 5 nmol s.c. days 6 and 13, anti-PD-1 200 μg i.p. days 6, 9, 12, 15, n = 8
  mortality by day 26: 100%
[7]; TC-1 tumor-bearing mice, 60 days, n = 8 per group, printed in Figure 5C
  Complete regression (mice / group): 0/8
[7]; TC-1 tumors, 5 nmol s.c. days 6 and 13, with or without anti-PD-1 blockade, n = 8
  tumor growth: Neither E alone nor the combination of E+αPD-1 blockade significantly suppressed tumor growth

## COc1cccc2c1C(=O)c1c(O)c3c(c(O)c1C2=O)C[C@@](O)(C(=O)CO)C[C@@H]3O[C@H]1C[C@H](N)[C@H](O)[C@H](C)O1 [doxorubicin]
[8]
  cytotoxicity (relative cell viability): concentration-dependent toxicity
[9]
  cytotoxicity (relative cell viability): concentration-dependent toxicity
[10]
  cytotoxicity (relative cell viability): concentration-dependent toxicity

## Pam2CSK4
[11]
  nuclear factor κB induction (SEAP, OD620): induced nuclear factor κB in TLR2/6-expressing cells
[12]
  bloodstream cytokines (IL-6, IL-12p40), systemic toxicity: significant inflammatory cytokine expression

## poly(I:C)
[12]
  bloodstream cytokines (IL-6, IL-12p40), systemic toxicity: significant inflammatory cytokine expression

## CNC(=O)O[C@H]1COc2ccc(N3CCN(C4COC4)CC3)cc2[C@@H]1NC(=O)c1ccc(F)cc1 [CS]
[1]
  effect of endocytosis/processing inhibitor on E+U and EUCV uptake: no change
[2]
  effect of inhibitor on antigen presentation (SIINFEKL/H-2K^b): reduction in antigen presentation

## methyl-β-cyclodextrin [Mbcd]
[1]; [13]
  effect of endocytosis/processing inhibitor on E+U and EUCV uptake: no change
